Results from US20090012172A1, “Cosmetic/pharmaceutical compositions comprising retinoids and anti-irritants and treatment of keratinization disorders therewith” (GALDERMA RESEARCH & DEVELOPMENT, priority 2005, published 2009).
Entries after “also recorded” stand apart in the source; their conditions may differ.

Columns and labels:
ear of the BALB/c mouse [1] = assay: Tolerance study: anti-irritant in preventive treatment before topical Differin gel, ear thickness (edema); assay type: in vivo; conditions: anti-irritant applied before Differin gel
Protocol: The goal of the present study is to compare the irritant power of a reference gel, comprising 0.1% adapalene, when this treatment is preceded or not preceded by treatment with an anti-irritant.
(§1) The treatment consists of a daily topical application (20 μl) of anti-irritant, formulated in an aqueous/alcoholic vehicle (50% ethanol and 50% water by volume), on the internal face of the right ear of BALB/c mice divided into 15 groups (female mice approximately 9 weeks old), followed by a topical application (20 μl) of Differin® gel (reference gel comprising 0.1% adapalene) at the rate of one application of each formulation per day for 6 days.
(§2) Evaluation is carried out by measurements of the thickness of the ear by means of the Oditest and by clinical observation of the animals from the 2nd to 19th day.

[2] = system: skin of the back of the Rhino mouse (comedones); assay: Comedolytic activity of Differin gel alone or preceded by anti-irritant on the Rhino mouse; assay type: in vivo, RHINO FVB/N RJ-hr (Rhino) mouse
Protocol: The goal of the present study is to compare the comedolytic activity of Differin® gel (reference gel comprising 0.1% adapalene) whether this treatment is preceded or not preceded by a treatment with an anti-irritant.
The treatment consists of a daily topical application of an aqueous/alcoholic vehicle (ethanol/water 50:50) comprising the anti-irritant potassium salt of 18β-glycyrrhetinic acid, followed 30 minutes later by an application of Differin® gel, on the skin of the back of the RHINO FVB/N RJ-hr^th (Rhino) mouse for 18 days.

ear of the BALB/c mouse [3] = assay: Study of tolerance of the formulation of Example 4 (non-split treatment), ear thickness; assay type: in vivo; conditions: adapalene and anti-irritant in the same formulation
Protocol: as §1, §2
A study of tolerance is carried out according to the protocol of Example 2 with the formulation of Example 4. However, the present case, in contrast to Example 2, relates to a treatment which is not split since the adapalene and the anti-irritant are present in the same formulation.

Structure (SMILES)	effect on the irritation caused by Differin gel (in words) (ear of the BALB/c mouse [1])	effect on the irritation caused by Differin gel (in words) (ear of the BALB/c mouse [1]; listed as enoxolone)	number of comedones per centimeter ([2]; back of Rhino mice after 18 days of daily topical treatment)	effect on the comedolytic activity of Differin gel (in words) ([2]; split treatment, anti-irritant 30 minutes before Differin gel, 18 days)	anti-irritant effect (in words) (ear of the BALB/c mouse [3])
CC1(C)[C@@H](O)CC[C@]2(C)[C@H]3C(=O)C=C4[C@@H]5C[C@@](C)(C(=O)O)CC[C@]5(C)CC[C@@]4(C)[C@]3(C)CC[C@@H]12 [Enoxolone, 18β-Glycyrrhetinic acid]	virtually no effect	does not have an effect on the irritation due to retinoids			
CC1(C)[C@@H](O)CC[C@]2(C)[C@H]3C(=O)C=C4[C@@H]5C[C@@](C)(C(=O)[O-])CC[C@]5(C)CC[C@@]4(C)[C@]3(C)CC[C@@H]12.[K+] [Potassium salt of 18β-glycyrrhetinic acid]	effective in reducing the irritation due to adapalene; also recorded: significantly reduces the irritation		statistically equivalent to that of groups 1 and 3	does not reduce the comedolytic activity	appears to be an effective anti-irritant
